The supplement of paper PMC10307832

Experiments:
Assay in all cases: relative viability (nuclei count vs DMSO), 5 days (fraction); higher = more cells survive
[1] = compound: Cn1c(Nc2ccc(C(F)(F)F)cc2)nc2cc(Oc3ccnc(-c4ncc(C(F)(F)F)[nH]4)c3)ccc21 [RAF265] + CS(=O)(=O)N1CCN(Cc2cc3nc(-c4cccc5[nH]ncc45)nc(N4CCOCC4)c3s2)CC1 [Pictilisib] (partner 1 µM)
Summary of the method: (§1)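 Medians of duplicate plates are given as relative viability. That measure is the nuclei count in treated wells divided by the count in vehicle wells. Counts were taken on 4× images of lung cancer cell lines in 1536-well plates, 5 days after pin-tool dosing the day after seeding with one drug alone or a fixed anchor-drug dose plus five library-drug doses (not always all listed) in √10 steps.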

[2] = compound: Cc1ccc(-n2nc(C(C)(C)C)cc2NC(=O)Nc2ccc(OCCN3CCOCC3)c3ccccc23)cc1 [Doramapimod] + O=C(CCCCCCC(=O)Nc1ccccc1)NO [Vorinostat] (partner 1 µM)
Summary of the method: as §1

[3] = compound: C1=CC=C2C(=C1)C=CC(=C2SSC3=C(C=CC4=CC=CC=C43)O)O [IPA-3] + CCNC(=O)c1noc(-c2cc(C(C)C)c(O)cc2O)c1-c1ccc(CN2CCOCC2)cc1 [Luminespib] (partner 0.01 µM)
Summary of the method: as §1

[4] = compound: Cn1c(Nc2ccc(C(F)(F)F)cc2)nc2cc(Oc3ccnc(-c4ncc(C(F)(F)F)[nH]4)c3)ccc21 [RAF265] + O=C(CCCCCCC(=O)Nc1ccccc1)NO [Vorinostat] (partner 1 µM)
Summary of the method: as §1

Row | Cell Line | relative viability ([1]; first compound 0.01 µM) | relative viability ([1]; first compound 0.03162 µM) | relative viability ([1]; first compound 0.1 µM) | relative viability ([1]; first compound 0.3162 µM) | relative viability ([1]; first compound 1 µM) | relative viability ([2]; first compound 0.02 µM) | relative viability ([2]; first compound 0.06325 µM) | relative viability ([2]; first compound 0.2 µM) | relative viability ([2]; first compound 0.6325 µM) | relative viability ([2]; first compound 2 µM) | relative viability ([3]; first compound 0.2 µM) | relative viability ([3]; first compound 0.6325 µM) | relative viability ([3]; first compound 2 µM) | relative viability ([3]; first compound 6.325 µM) | relative viability ([3]; first compound 20 µM) | relative viability ([4]; first compound 0.01 µM) | relative viability ([4]; first compound 0.03162 µM) | relative viability ([4]; first compound 0.1 µM) | relative viability ([4]; first compound 0.3162 µM) | relative viability ([4]; first compound 1 µM)
1 | 201T | 0.717 | 0.7 | 0.685 | 0.564 | 0.552 | 0.994 | 1.03 | 1.06 | 0.672 | 1 | 1.07 | 1.02 | 1.08 | 1.05 | 1.14 | 0.975 | 0.966 | 0.998 | 0.974 | 0.994
2 | A549 | 0.476 | 0.498 | 0.391 | 0.235 | 0.0846 | – | – | – | – | – | – | – | – | – | – | – | – | – | – | –
3 | A-427 | 0.738 | 0.531 | 0.797 | 0.395 | 0.15 | 0.905 | 0.889 | 0.904 | – | 0.904 | 1.02 | 0.855 | 0.999 | 0.803 | 1.02 | 0.89 | 0.829 | 0.892 | 0.733 | 0.423
4 | ABC-1 | 0.808 | 0.58 | 0.608 | 0.525 | 0.458 | 1.25 | 1.29 | 1.21 | 0.865 | 1.15 | 0.723 | – | 0.573 | – | 0.29 | 1.34 | 0.853 | 1.3 | 0.982 | 0.644
5 | BEN | 0.627 | 0.696 | 0.69 | 0.625 | 0.55 | 0.54 | 0.561 | 0.513 | 0.458 | 0.584 | 0.387 | 0.439 | 0.386 | 0.576 | 0.472 | 0.569 | 0.586 | 0.6 | 0.662 | 0.544
6 | CAL-12T | 0.359 | 0.407 | 0.293 | 0.278 | 0.223 | 0.621 | 0.787 | 0.713 | 0.945 | 0.754 | 0.724 | 0.287 | 0.449 | 0.375 | 0.488 | 0.781 | 0.825 | 0.61 | 0.606 | 0.372
7 | COR-L23 | 0.874 | 0.663 | 0.626 | 0.368 | 0.323 | 0.449 | 0.489 | 0.386 | 0.537 | 0.424 | 0.866 | 0.627 | 0.725 | 0.643 | 0.48 | 0.487 | 0.297 | 0.392 | 0.268 | 0.248
8 | COR-L 105 | 0.487 | 0.316 | 0.383 | 0.292 | 0.307 | 0.671 | 0.881 | 0.763 | 1 | 0.764 | 0.866 | 0.858 | 0.771 | 0.826 | 0.97 | 1.03 | 0.896 | 0.845 | 0.725 | 0.495
9 | Calu-6 | 0.87 | 0.594 | 0.462 | 0.306 | 0.209 | – | – | – | – | – | – | – | – | – | – | – | – | – | – | –
10 | ChaGo-K-1 | 0.786 | 0.833 | 0.8 | 0.765 | 0.56 | 0.778 | 0.769 | 0.689 | 0.596 | 0.64 | 0.734 | 0.539 | 0.58 | 0.632 | 0.58 | 0.783 | 0.826 | 0.727 | 0.635 | 0.578
11 | EBC-1 | 0.375 | 0.386 | 0.233 | 0.317 | 0.221 | – | – | – | – | – | – | – | – | – | – | – | – | – | – | –
12 | EKVX | 0.425 | 0.414 | 0.429 | 0.242 | 0.334 | 0.819 | 0.749 | 0.76 | 0.771 | 0.725 | 0.826 | 0.781 | 0.867 | 0.938 | 1.01 | 0.775 | 0.659 | 0.87 | – | 0.581
13 | EMC-BAC-2 | 0.494 | 0.513 | 0.496 | 0.386 | 0.228 | 0.49 | 0.867 | 0.78 | 0.256 | 0.433 | 1.13 | 1.04 | 1.2 | 1.2 | 1.21 | 0.449 | 0.359 | 0.306 | 0.141 | 0.103
14 | EPLC-272H | 0.35 | 0.349 | 0.311 | 0.237 | 0.191 | 0.494 | 0.529 | 0.266 | 0.528 | 0.41 | 0.469 | 0.473 | 0.352 | 0.416 | 0.553 | 0.503 | 0.472 | 0.318 | 0.22 | 0.113
15 | H3255 | 0.494 | 0.512 | 0.522 | 0.132 | 0.336 | 0.864 | 0.884 | 0.818 | – | 0.84 | 1.03 | 0.757 | 0.782 | 0.871 | 0.889 | 0.889 | 0.748 | 0.804 | 0.231 | 0.413
16 | HARA | 0.367 | 0.267 | 0.271 | 0.287 | 0.134 | 0.532 | 0.496 | 0.547 | 0.506 | 0.486 | 0.991 | 0.767 | 0.0423 | 0.889 | 1.08 | 0.454 | 0.64 | 0.537 | 0.546 | 0.192
